Test results published in the supplement of paper PMC10331698.
± gives the standard deviation of the averaged measurements.

What was measured:
Experiment in all cases: level (log10 ratio to DMSO vehicle control); higher = higher biomarker level / cell amount than vehicle control
Details in all cases: in DMSO
[1] = compound: O=C(O)C(F)(F)C(F)(F)C(F)(F)C(=O)O [Hexafluoroglutaric acid]
Description: (§1)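 BioMAP Diversity Plus panel of 12 human primary cell co-culture systems (3C, 4H, LPS, SAg, BT, BF4T, BE3C, CASM3C, HDF3CGF, KF3CT, MyoF, Mphg). Compounds were added 1 h before stimulation and left for 24 h (MyoF 48 h; BT 72 h for soluble read-outs or 6 d for IgG). Biomarkers were read by ELISA, cytotoxicity by SRB, PBMC viability and proliferation by Alamar Blue. Each well value was divided by the mean of 8 DMSO control wells on the same plate and log10 transformed; duplicate blinded samples were tested at 4 concentrations.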

[2] = compound: CNS(=O)(=O)C(F)(F)C(F)(F)C(F)(F)C(F)(F)C(F)(F)C(F)(F)C(F)(F)C(F)(F)F [N-Methylperfluorooctanesulfonamide]
Description: as §1

[3] = compound: O=S(=O)(O)C(F)(F)C(F)(F)C(F)(F)C(F)(F)C(F)(F)C(F)(F)C(F)(F)C(F)(F)F [Perfluorooctanesulfonic acid]
Description: as §1

[4] = compound: Cn1cnc([N+](=O)[O-])c1Sc1ncnc2[nH]cnc12 [Azathioprine]
Description: as §1

[5] = compound: O=C(O)C(F)(F)OC(F)(F)C(F)(F)OC(F)(F)C(F)(F)C(F)(F)C(F)(F)F [Perfluoro-3,6-dioxadecanoic acid]
Description: as §1

[6] = compound: O=C(O)C(F)(F)C(F)(F)C(F)(F)C(F)(F)C(F)(F)C(F)(F)C(F)(F)C(F)(F)C(F)(F)C(F)(F)C(F)(F)C(F)(F)F [Perfluorotridecanoic acid]
Description: as §1

Test System	level (log10) ([1]; 6700 nM)	level (log10) ([1]; 20000 nM)	level (log10) ([1]; 60000 nM)	level (log10) ([2]; 6700 nM)	level (log10) ([2]; 20000 nM)	level (log10) ([2]; 60000 nM)	level (log10) ([3]; 6700 nM)	level (log10) ([3]; 20000 nM)	level (log10) ([3]; 60000 nM)	level (log10) ([4]; 1400 nM)	level (log10) ([4]; 4200 nM)	level (log10) ([4]; 13000 nM)	level (log10) ([4]; 38000 nM)	level (log10) ([5]; 6700 nM)	level (log10) ([5]; 20000 nM)	level (log10) ([5]; 60000 nM)	level (log10) ([6]; 1500 nM)	level (log10) ([6]; 4400 nM)	level (log10) ([6]; 13000 nM)	level (log10) ([6]; 40000 nM)
HDF3CGF:CCL2/MCP-1	-0.01 ± 0.0028	-0.0215 ± 0.012	-0.005 ± 0.0042	0.034 ± 0.0085	0.0305 ± 0.0035	0.029 ± 0.014	-0.005 ± 0.0042	-0.013 ± 0.0071	0.01 ± 0.033	-0.0095 ± 0.018	-0.005 ± 0.0057	-0.0255 ± 0.0035	-0.043 ± 0.024	0.0135 ± 0.018	-0.017 ± 0.0071	-0.043 ± 0.0014	0.0155 ± 0.043	-0.039 ± 0.082	-0.018 ± 0.018	-0.0145 ± 0.015
HDF3CGF:CD54/ICAM-1	0.001 ± 0.018	0.0035 ± 0.013	0.004 ± 0.016	-0.002 ± 0.0028	-0.0075 ± 0.019	-0.0845 ± 0.0035	-0.025 ± 0.013	-0.0105 ± 0.00071	-0.033 ± 0.014	-0.0065 ± 0.011	0.0045 ± 0.0078	0.0015 ± 0.019	-0.0195 ± 0.012	-0.0025 ± 0.021	-0.0125 ± 0.026	-0.038 ± 0.04	-0.016 ± 0.0071	-0.0075 ± 0.015	-0.0135 ± 0.064	-0.0275 ± 0.12
HDF3CGF:CD106/VCAM-1	-0.045 ± 0.0071	-0.0195 ± 0.071	-0.05 ± 0.12	-0.164 ± 0.017	-0.176 ± 0.029	-0.154 ± 0.0021	-0.043 ± 0.03	-0.089 ± 0.0057	-0.21 ± 0.083	-0.0485 ± 0.1	-0.021 ± 0.03	-0.08 ± 0.042	-0.243 ± 0.0057	-0.0845 ± 0.0021	-0.15 ± 0.0057	-0.21 ± 0.013	-0.0785 ± 0.0021	-0.207 ± 0.14	-0.152 ± 0.026	-0.291 ± 0.04
HDF3CGF:CXCL8/IL-8	-0.005 ± 0.013	-0.0005 ± 0.0064	-0.0015 ± 0.0035	-0.0145 ± 0.0035	-0.0195 ± 0.00071	-0.0015 ± 0.0035	-0.017 ± 0.0057	-0.014 ± 0.0042	0.0055 ± 0.015	0.006 ± 0.014	-0.0155 ± 0.021	-0.009 ± 0.0028	0.0045 ± 0.029	-0.0065 ± 0.005	-0.001 ± 0.0028	0.001 ± 0.016	0.007	0.004 ± 0.0014	0.012 ± 0.0014	0.0165 ± 0.015
HDF3CGF:CXCL9/MIG	-0.013 ± 0.014	-0.025 ± 0.011	-0.005 ± 0.013	-0.0065 ± 0.03	0.0105 ± 0.011	-0.0205 ± 0.011	-0.011 ± 0.013	-0.0085 ± 0.029	-0.0595 ± 0.0064	-0.002 ± 0.018	-0.0215 ± 0.013	-0.026 ± 0.02	-0.0645 ± 0.005	-0.0175 ± 0.0064	-0.046 ± 0.092	-0.126	-0.04 ± 0.03	-0.136 ± 0.12	-0.119 ± 0.043	-0.138 ± 0.073
HDF3CGF:CXCL10/IP-10	0.0035 ± 0.021	-0.008 ± 0.0071	-0.011 ± 0.037	-0.102 ± 0.064	-0.099 ± 0.071	-0.0875 ± 0.022	-0.0405 ± 0.036	-0.113 ± 0.039	-0.259 ± 0.054	-0.0225 ± 0.022	-0.037 ± 0.044	-0.0825 ± 0.012	-0.152 ± 0.0078	-0.0505 ± 0.019	-0.0745 ± 0.026	-0.156 ± 0.04	-0.0955 ± 0.063	-0.234 ± 0.2	-0.236 ± 0.098	-0.235 ± 0.13
HDF3CGF:CXCL11/I-TAC	0.014 ± 0.0014	-0.011 ± 0.072	-0.0115 ± 0.061	-0.0385 ± 0.015	-0.069 ± 0.0071	-0.0495 ± 0.011	-0.0165 ± 0.016	-0.0185 ± 0.00071	-0.087 ± 0.017	-0.0495 ± 0.018	-0.042 ± 0.055	-0.078 ± 0.014	-0.21 ± 0.04	-0.0355 ± 0.023	-0.0895 ± 0.028	-0.168 ± 0.024	-0.072 ± 0.014	-0.074 ± 0.055	-0.0805 ± 0.077	-0.18 ± 0.034
HDF3CGF:Collagen I	-0.03 ± 0.014	-0.0385 ± 0.0078	0.0105 ± 0.071	-0.0245 ± 0.012	-0.041 ± 0.038	0.0085 ± 0.066	0.0175 ± 0.033	0.0045 ± 0.026	0.0065 ± 0.042	-0.0185 ± 0.005	-0.059 ± 0.044	-0.0475 ± 0.028	-0.034 ± 0.064	-0.052 ± 0.011	-0.0485 ± 0.0064	-0.095 ± 0.13	0.0245 ± 0.1	-0.017 ± 0.0071	-0.0245 ± 0.044	0.0105 ± 0.013
HDF3CGF:Collagen III	-0.0065 ± 0.015	-0.0275 ± 0.00071	-0.0125 ± 0.00071	-0.102 ± 0.0035	-0.143 ± 0.011	-0.092 ± 0.037	-0.024 ± 0.031	-0.0155 ± 0.015	-0.0585 ± 0.013	-0.0145 ± 0.074	-0.114 ± 0.088	-0.101 ± 0.0064	-0.22 ± 0.096	-0.024 ± 0.044	-0.0885 ± 0.035	-0.286 ± 0.045	-0.057 ± 0.083	-0.27 ± 0.037	-0.261 ± 0.034	-0.224 ± 0.078
HDF3CGF:EGFR	-0.021 ± 0.061	-0.0285 ± 0.056	-0.021 ± 0.072	0.016 ± 0.0057	-0.014 ± 0.023	0.0055 ± 0.0064	-0.0205 ± 0.0064	-0.0495 ± 0.043	-0.04 ± 0.018	-0.006 ± 0.0014	-0.0565 ± 0.076	-0.05 ± 0.061	-0.011 ± 0.1	-0.0005 ± 0.0064	-0.0815 ± 0.026	-0.135 ± 0.016	0.0025 ± 0.077	-0.052 ± 0.025	-0.0595 ± 0.03	-0.0175 ± 0.046
HDF3CGF:M-CSF	-0.0015 ± 0.013	-0.006 ± 0.033	-0.0285 ± 0.029	0.0055 ± 0.018	0.006 ± 0.025	-0.001 ± 0.027	0.0225 ± 0.018	0.018 ± 0.013	-0.075 ± 0.0042	-0.0255 ± 0.039	-0.018 ± 0.042	-0.0595 ± 0.011	-0.184 ± 0.025	-0.0555 ± 0.067	-0.065 ± 0.011	-0.152 ± 0.0078	0.016	0.0145 ± 0.049	-0.029 ± 0.078	-0.0295 ± 0.13
HDF3CGF:MMP-1	0.0195 ± 0.0092	0.002 ± 0.02	-0.0045 ± 0.021	-0.008 ± 0.016	-0.005 ± 0.011	0.0005 ± 0.013	-0.0145 ± 0.0064	-0.016 ± 0.0014	0.0085 ± 0.015	0.0005 ± 0.0021	0.02 ± 0.021	0.0275 ± 0.022	0.0415 ± 0.0021	-0.023 ± 0.011	-0.0485 ± 0.013	-0.068 ± 0.011	-0.0005 ± 0.035	-0.061 ± 0.042	-0.063 ± 0.044	-0.068 ± 0.069
HDF3CGF:PAI-I	-0.0115 ± 0.016	-0.007 ± 0.014	0.0075 ± 0.021	0.051 ± 0.0028	0.0455 ± 0.019	0.063 ± 0.02	0.006	0.0125 ± 0.011	-0.0015 ± 0.025	0.022 ± 0.054	-0.015 ± 0.037	-0.0545 ± 0.04	-0.198 ± 0.021	0.0225 ± 0.013	0.0375 ± 0.0021	0.045 ± 0.024	0.063	0.0515 ± 0.023	0.0505 ± 0.0064	-0.022 ± 0.027
HDF3CGF:Proliferation 72hr	-0.011 ± 0.059	-0.013 ± 0.028	-0.008 ± 0.05	-0.001 ± 0.073	0.0205 ± 0.073	-0.056 ± 0.095	0.141 ± 0.05	0.15 ± 0.048	-0.544 ± 0.18	-0.0455 ± 0.079	-0.061 ± 0.035	-0.057 ± 0.0057	-0.162 ± 0.027	0.0245 ± 0.00071	0.116 ± 0.011	-0.0545 ± 0.036	0.0615 ± 0.07	-0.603 ± 0.43	-0.288 ± 0.069	-0.233 ± 0.091
